This passage reports T1/2, EC50 and IC50 results from ChEMBL document CHEMBL4118102 (J Med Chem, 2018).

One may read the EC50 as the concentration that produces a half-maximal response. The term IC50 denotes the point on the concentration scale where inhibition reaches its midpoint.

Assay [1] has as its target Neuraminidase (Influenza A virus) (UniProt B4URF0). Conditions: A/chicken/Vietnam/08/2004 (H5N1) clade 1.
Assay [2] deals with Influenza A virus. The assay is described as follows: Antiviral activity against Influenza A virus (A/Victoria/503/06) infected in MDCK cells assessed as reduction in plaque formation measured after 3 days post infection by neutral red staining-based assay. The class given is functional, organism-based.
The target in assay [3] is Neuraminidase (Influenza A virus) (UniProt B4URF0). Conditions: A/swine/Shepparton/6/2009 (H1N1).
For assay [4], the target named is Neuraminidase (Influenza A virus (A/Memphis/1/1971(H3N2))) (UniProt P03471). Conditions: Influenza A virus (A/Fukui/45/2004(H3N2)).
Assay [5] deals with Neuraminidase (Influenza A virus) (UniProt B4URF0). The conditions noted are these: A/Mississippi/03/01 (H1N1).
The target in assay [6] is T1, Neuraminidase (Influenza B virus, UniProt Q3S340). On the set-up: species or system Influenza B virus (B/Perth/211/2001).
In assay [7] the target is Neuraminidase (Influenza A virus) (UniProt A5Z252). Conditions: Influenza A virus (A/chicken/Bangli/BBVD-563/2007(H5N1)); clade 2.
The target of assay [8] is Neuraminidase (Influenza B virus) (UniProt Q3S340). Conditions: Influenza B virus (B/Perth/211/2001).
Assay [9] relates to Influenza B virus. The assay is described as follows: Antiviral activity against Influenza B virus (B/Perth/211/2001) infected in MDCK cells assessed as reduction in plaque formation measured after 3 days post infection by neutral red staining-based assay. It counts as functional, organism-based. The conditions noted are these: 72 h.
For assay [10], the system named is Influenza A virus. Nature of the assay: Antiviral activity against Influenza A virus (A/Mississippi/03/01 (H1N1)) infected in MDCK cells assessed as reduction in plaque formation measured after 3 days post infection by neutral red staining-based assay. The class given is functional, organism-based. Conditions: 72 h.
In assay [11] the test system is Influenza A virus. Nature of the assay: Antiviral activity against Influenza A virus (A/Fukui/45/04(H3N2)) infected in MDCK cells assessed as reduction in plaque formation measured after 3 days post infection by neutral red staining-based assay. It counts as functional, organism-based, Influenza A virus (A/Fukui/45/2004(H3N2)). Conditions: 72 h.
Assay [12] deals with T1, Neuraminidase. On the set-up: species or system Influenza B virus (B/Perth/211/2001). This is another data set of the same source.
In assay [13] the target is T2, Neuraminidase (Influenza A virus, UniProt A5Z252). More on the design: species or system Influenza A virus (A/chicken/Bangli/BBVD-563/2007(H5N1)), clade 2.
In assay [14] the target is T2, Neuraminidase. More on the design: species or system Influenza A virus (A/chicken/Bangli/BBVD-563/2007(H5N1)), clade 2. This is another data set of the same source.
For assay [15], the target named is T3, Neuraminidase (Influenza A virus, UniProt B4URF0).
The target of assay [16] is T3, Neuraminidase. The source holds these as a separate data set.
The target in assay [17] is T3, Neuraminidase. The source holds these as a separate data set.
For assay [18], the target named is T3, Neuraminidase. This is another data set of the same source.
Assay [19] concerns the target T3, Neuraminidase. This is another data set of the same source.
The target of assay [20] is T3, Neuraminidase. The source holds these as a separate data set.
Assay [21] has as its target T3, Neuraminidase. This is another data set of the same source.
Assay [22] concerns the target Neuraminidase (Influenza A virus (A/Memphis/1/1971(H3N2)), UniProt P03471). On the set-up: species or system Influenza A virus (A/Fukui/45/2004(H3N2)).
Assay [23] has the same target. On the set-up: species or system Influenza A virus (A/Fukui/45/2004(H3N2)). This is another data set of the same source.
Assay [24] addresses T3, Neuraminidase. The source holds these as a separate data set.
The mark [25] stands for this setting: Influenza A virus, A/Victoria/503/06, MDCK, 72 h.

The structures appear in SMILES notation.

Neuraminidase (Influenza A virus (A/Memphis/1/1971(H3N2))), sequence (P03471 whole entry): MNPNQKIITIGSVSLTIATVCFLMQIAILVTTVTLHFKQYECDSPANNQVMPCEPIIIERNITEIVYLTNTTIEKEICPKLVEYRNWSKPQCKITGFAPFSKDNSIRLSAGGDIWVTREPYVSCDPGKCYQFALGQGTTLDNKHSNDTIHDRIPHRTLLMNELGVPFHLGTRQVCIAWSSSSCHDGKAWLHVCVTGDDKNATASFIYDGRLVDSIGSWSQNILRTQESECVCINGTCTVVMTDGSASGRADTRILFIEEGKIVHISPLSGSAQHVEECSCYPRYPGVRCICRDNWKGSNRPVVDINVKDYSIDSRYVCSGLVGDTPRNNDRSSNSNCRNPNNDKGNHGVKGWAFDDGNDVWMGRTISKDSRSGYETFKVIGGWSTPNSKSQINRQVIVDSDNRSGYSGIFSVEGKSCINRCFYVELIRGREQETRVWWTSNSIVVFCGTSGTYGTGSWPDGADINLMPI
Neuraminidase (Influenza A virus (A/Memphis/1/1971(H3N2)), UniProt P03471), sequence (P03471 whole entry): as above
Neuraminidase (Influenza B virus), sequence (Q3S340 as listed by the source): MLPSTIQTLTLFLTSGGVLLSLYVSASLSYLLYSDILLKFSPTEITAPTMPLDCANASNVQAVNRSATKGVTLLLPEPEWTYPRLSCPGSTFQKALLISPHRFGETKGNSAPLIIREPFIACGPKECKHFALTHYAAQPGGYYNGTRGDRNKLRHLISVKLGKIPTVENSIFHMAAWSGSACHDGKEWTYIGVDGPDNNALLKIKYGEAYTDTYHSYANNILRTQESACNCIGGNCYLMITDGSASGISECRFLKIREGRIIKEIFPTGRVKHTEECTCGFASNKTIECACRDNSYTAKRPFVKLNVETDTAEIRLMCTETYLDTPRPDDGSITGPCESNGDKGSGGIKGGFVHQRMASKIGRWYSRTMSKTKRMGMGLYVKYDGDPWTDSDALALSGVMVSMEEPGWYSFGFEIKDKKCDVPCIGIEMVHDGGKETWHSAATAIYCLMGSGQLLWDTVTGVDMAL
T1 sequence (Q3S340 whole entry): as the sequence (Q3S340 as listed by the source) above

`CC(=O)N[C@@H]1[C@@H](O)[C@@H](F)[C@](F)(C(=O)O)O[C@H]1[C@H](O)[C@@H](C)O`: the T1/2 is 17.2 min in assay [1]; 24.5 min in [3]; 29.7 min in [4]; 37.5 min in assay [5]; 16.9 min in assay [7]; > 240 min in [8]. The EC50 in assay [2] (setting [25]) was ≥ 100000 nM; in assay [9], 10000 to 100000 nM; in [10] it was 10000 to 100000 nM. Further, the midpoint of inhibition in assay [6], the IC50, lay at 9190 nM.

Take `CC(=O)N[C@@H]1[C@@H](O)[C@@H](F)[C@](F)(C(=O)O)O[C@H]1C[C@H](O)CO`: the T1/2 in [1] was 15 min; in [3], 15.8 min; in assay [4], 13.9 min; in [5], 29.2 min; in assay [7], 12.3 min; in [8], 68.7 min. The 50% effective concentration (EC50) in [2] (mdck) was 10000 nM; in assay [11], 10000 to 100000 nM; in [9], 1000 to 10000 nM; in [10], 100 to 1000 nM. Moreover, the IC50 was determined as 228 nM in assay [6] and 40 nM in assay [12].

Consider `CC(=O)N[C@@H]1[C@@H](O)[C@@H](F)[C@](F)(C(=O)O)O[C@H]1[C@H](O)[C@H](O)CO`, for which the T1/2 in [1] was found to be 12 min; in assay [3], 11.8 min; in assay [4], 17.6 min; in [5], 24.8 min; in [7] it was 8.5 min; in [8], 43.6 min. The EC50 in assay [2] (setting [25]) was found to be 100000 nM; in [11], 100000 nM; in assay [9], 1000 nM; in assay [10], 1000 nM. In addition, the concentration for half-maximal inhibition (IC50) turned out to be 414 nM in assay [6], 863 nM in assay [13], 889 nM in [14] and 65 nM in [12].

As for `CC(=O)N[C@@H]1[C@@H](O)[C@@H](F)[C@](F)(C(=O)O)O[C@H]1[C@H](O)CCO`, the IC50 in assay [15] stood at 2610 nM; in assay [16], 25800 nM; in [17], 22400 nM; in assay [6], 7620 nM; in assay [18] it was 25800 nM; in assay [19], 21700 nM. In addition, the half-maximal inhibitory concentration (IC50) in assay [20] came out at 17000 nM; in assay [13], 24500 nM; in [14], 28200 nM; in [21], 22000 nM; in assay [22], 5010 nM; in assay [23], 28700 nM. The same compound had an IC50 in assay [24] of 8290 nM. The T1/2 in [1] came to 19.4 min; in assay [3], 17.8 min; in assay [4] it was 25.1 min; in assay [5] it was 30.4 min; in assay [7], 23.6 min; in assay [8], 186 min. Besides, the EC50 was ≥ 100000 nM in assay [2] (setting [25]), ≥ 100000 nM in assay [11], 10000 to 100000 nM in assay [9] and 10000 nM in assay [10].

Take `CC(=O)N[C@@H]1C[C@@H](F)[C@](F)(C(=O)O)O[C@H]1[C@H](O)[C@H](O)CO`: the IC50 in assay [15] came out at 69 nM; in assay [16], 428 nM; in assay [17], 490 nM; in assay [6] it was 76 nM; in [18], 474 nM; in assay [19], 985 nM. For the same compound, the 50% inhibitory concentration (IC50) is 1400 nM in assay [20]; 583 nM in [13]; 535 nM in assay [14]; 490 nM in [21]; 318 nM in assay [22]; 27 nM in assay [12]. Besides, the results for the IC50 in [23] and in assay [24] were 313 nM and 48 nM, respectively. In addition, the T1/2 in assay [1] turned out to be 13.7 min; in assay [3] it was 11.6 min; in assay [4], 13.4 min; in assay [5] it was 26.7 min; in assay [7] it was 10.6 min; in [8] it was 29.2 min. In addition, the EC50 in assay [2] (setting [25]) is 10000 nM; in assay [11], 100000 nM; in [9] it was 1000 nM; in [10] it was 1000 nM.

Consider `CC(=O)N[C@H]1[C@H]([C@H](O)[C@H](O)CO)OC(C(=O)O)=C[C@@H]1NC(=N)N` [ZANAMIVIR], for which the EC50 is 0.1 to 1 nM in assay [2] (setting [25]), 100 nM in assay [11], 10 nM in assay [9] and ≤ 1 nM in assay [10]. Moreover, in assay [7], the T1/2 came out at 72.8 min.
